# Experiments:
# [1] = biological target: T1, human calcium receptor (Homo sapiens, UniProt P41180); experiment: Activity on calcium receptors: fluo-3 fluorescence in HEK293 cells transfected with human calcium receptor gene; format: cell-based; conditions: HEK293 cells transfected with plasmid pHuPCaR4.0 (human calcium receptor gene), loaded with fluo-3; 1 mM CaCl2, 1 mM MgCl2
# T1 construct: expressed in transfected cells; host or cells: HEK293
# T1 sequence (P41180 20-1078): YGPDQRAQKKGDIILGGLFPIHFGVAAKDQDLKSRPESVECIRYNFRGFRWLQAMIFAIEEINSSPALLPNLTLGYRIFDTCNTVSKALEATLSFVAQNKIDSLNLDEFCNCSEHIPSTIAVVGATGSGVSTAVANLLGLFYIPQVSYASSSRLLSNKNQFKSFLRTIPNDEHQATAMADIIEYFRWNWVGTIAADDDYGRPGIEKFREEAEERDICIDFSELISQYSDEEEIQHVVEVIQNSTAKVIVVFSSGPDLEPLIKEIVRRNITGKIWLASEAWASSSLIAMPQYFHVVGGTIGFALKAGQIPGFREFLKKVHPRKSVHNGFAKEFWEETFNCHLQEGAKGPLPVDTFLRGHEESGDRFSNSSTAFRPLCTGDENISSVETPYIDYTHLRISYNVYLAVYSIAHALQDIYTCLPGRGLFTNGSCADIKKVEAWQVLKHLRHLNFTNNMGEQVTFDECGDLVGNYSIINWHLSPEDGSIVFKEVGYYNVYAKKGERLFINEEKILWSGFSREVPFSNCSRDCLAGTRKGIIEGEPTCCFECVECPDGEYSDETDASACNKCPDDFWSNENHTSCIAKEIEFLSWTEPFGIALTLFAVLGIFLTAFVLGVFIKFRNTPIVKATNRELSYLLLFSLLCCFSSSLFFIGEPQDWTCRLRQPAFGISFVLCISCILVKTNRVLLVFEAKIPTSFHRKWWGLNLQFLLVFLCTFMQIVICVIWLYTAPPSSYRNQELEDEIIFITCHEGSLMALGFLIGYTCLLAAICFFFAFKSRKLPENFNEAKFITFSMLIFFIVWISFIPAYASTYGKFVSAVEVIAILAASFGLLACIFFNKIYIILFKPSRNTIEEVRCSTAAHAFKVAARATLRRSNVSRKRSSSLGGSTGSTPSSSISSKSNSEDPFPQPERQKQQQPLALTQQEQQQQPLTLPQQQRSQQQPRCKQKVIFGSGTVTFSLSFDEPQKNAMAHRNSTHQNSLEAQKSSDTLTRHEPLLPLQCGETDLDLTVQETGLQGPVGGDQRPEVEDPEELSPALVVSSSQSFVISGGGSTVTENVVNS
# Protocol: The activities of the compounds of the present invention on calcium receptors were measured. The measurement was performed in accordance with the method described in Example 4 of Nemeth et al., PCT/US95/13704 (International Publication No. WO96/12697). In brief, HEK293 cells were transfected with a plasmid pHuPCaR4.0 containing a human calcium receptor gene and loaded with fluo-3. The loading was carried out by incubating the cells at 37° C. for 1 hour in Dulbecco's modified Eagle's medium which contained about 5 μM of fluo-3/AM and had been buffered with 20 mM HEPES. Next, the cells were rinsed with Hank's balanced salt solution which contained 1 mM CaCl2 and 1 mM MgCl2 and had been buffered with 20 mM HEPES. Then each test compound was added to the cells and the fluorescence was measured with the use of an excitation wavelength of 485 nm and an emission wavelength of 540 nm.
# [2] = test system: normal male SD rats; experiment: Plasma Ca^2+ level of rats after single oral administration; format: in vivo; conditions: rat, mean of six animals, vehicle 10% cyclodextrin (** 1% sodium-CMC); for Plasma Ca^2+ (mmol/l) 1 hr: 1 hr after single oral dose 30 μmol/kg; for Plasma Ca^2+ (mmol/l) 2 hr: 2 hr after single oral dose 30 μmol/kg; for Plasma Ca^2+ (mmol/l) 4 hr: 4 hr after single oral dose 30 μmol/kg; for Plasma Ca^2+ (mmol/l) 8 hr: 8 hr after single oral dose 30 μmol/kg
# Protocol: The compound of the present invention was administered to rats so as to examine the effects of the compound on the plasma calcium ion level and serum PTH level. The test was performed by orally administering single dose of the compound of the invention or a control compound to normal male SD rats with six animals in each group.
# To the group 1 was administered as a control a 10% cyclodextrin aqueous solution in a dose of 2.5 ml/kg. To the group 2 was administered as a reference (R)-N-(3-(2-chlorophenyl)propyl)-1-(3-methoxyphenyl)ethylamine (KRN568) dissolved in a 10% cyclodextrin aqueous solution in a dose of 30 μmol/kg. To the group 3 was administered the compound of the present invention dissolved in a 10% cyclodextrin aqueous solution in a dose of 30 μmol/kg, provided that 1% sodium-CMC aqueous solution was used in place of 10% cyclodextrin aqueous solution for the compounds marked with ** in Table 2.
# Blood of each rat was collected from the tail tip before the administration and 30 minutes and 1, 2, 4, 8 and 24 hours thereafter (or at the time indicated in Table 2), and the plasma Ca^2+ level and serum PTH level were measured. The data of the serum PTH level were statistically processed by the multiple comparison analysis in accordance with Steel's calibration by using the group 1 as the control.
structure (smiles),measurement,setting,value
"CCCCCCOc1cccc(C(C)NCCSc2cc(Cl)ccc2Cl)c1 (racemic) [Compound K-2255, (±)-N-(1-(3-n-hexyloxyphenyl)ethyl)-2-(2′,5′-dichlorophenylthio)ethylamine]",EC50,[1],9600 nM
same,Plasma Ca^2+ (mmol/l) 1 hr,[2],1.328 mmol/L
same,Plasma Ca^2+ (mmol/l) 2 hr,[2],1.212 mmol/L
same,Plasma Ca^2+ (mmol/l) 4 hr,[2],1.177 mmol/L
same,Plasma Ca^2+ (mmol/l) 8 hr,[2],1.232 mmol/L
"CC(NCCSc1cc(Cl)ccc1Cl)c1cccc(OCc2ccc(Cl)cc2)c1 (racemic) [Compound K-2258, (±)-N-(1-(3-(4-chlorobenzyloxy)phenyl)ethyl)-2-(2′,5′-dichlorophenylthio)ethylamine]",EC50,[1],380 nM
same,Plasma Ca^2+ (mmol/l) 1 hr,[2],1.317 mmol/L
same,Plasma Ca^2+ (mmol/l) 2 hr,[2],1.227 mmol/L
same,Plasma Ca^2+ (mmol/l) 4 hr,[2],1.133 mmol/L
same,Plasma Ca^2+ (mmol/l) 8 hr,[2],1.207 mmol/L
"C[C@@H](NCCCCCSc1ccc(Cl)cc1)c1cccc2ccccc12 [Compound K-2027, N-{5-[(4-chlorophenyl)thio]pentyl}-N-[(1R)-1-(1-naphthyl)ethyl]amine]",EC50,[1],390 nM
same,Plasma Ca^2+ (mmol/l) 1 hr,[2],1.197 mmol/L
same,Plasma Ca^2+ (mmol/l) 2 hr,[2],1.102 mmol/L
same,Plasma Ca^2+ (mmol/l) 4 hr,[2],0.995 mmol/L
same,Plasma Ca^2+ (mmol/l) 8 hr,[2],1.048 mmol/L
same,Plasma Ca^2+ (mmol/l) 24 hr,[2]; 24 hr after single oral dose 30 μmol/kg,1.363 mmol/L
"C[C@@H](NCCCCCSc1ccc(F)cc1)c1cccc2ccccc12 [Compound K-2052, N-{5-[(4-fluorophenyl)thio]pentyl}-N-[(1R)-1-(1-naphthyl)ethyl]amine]",EC50,[1],5700 nM
same,Plasma Ca^2+ (mmol/l) 1 hr,[2],1.283 mmol/L
same,Plasma Ca^2+ (mmol/l) 2 hr,[2],1.187 mmol/L
same,Plasma Ca^2+ (mmol/l) 4 hr,[2],1.087 mmol/L
same,Plasma Ca^2+ (mmol/l) 8 hr,[2],1.185 mmol/L
"C[C@@H](NCCCCSc1cccc(C(F)(F)F)c1)c1cccc2ccccc12 [Compound K-2087, N-[(1R)-1-(1-naphthyl)ethyl]-N-(4-{[3-(trifluoromethyl)phenyl]thio}butyl)amine]",EC50,[1],87 nM
same,Plasma Ca^2+ (mmol/l) 1 hr,[2],1.325 mmol/L
same,Plasma Ca^2+ (mmol/l) 2 hr,[2],1.243 mmol/L
same,Plasma Ca^2+ (mmol/l) 4 hr,[2],1.197 mmol/L
same,Plasma Ca^2+ (mmol/l) 8 hr,[2],1.255 mmol/L
"C[C@@H](NCCCSc1ccc(C(F)(F)F)cc1)c1cccc2ccccc12 [Compound K-2240, N-[(1R)-1-(1-naphthyl)ethyl]-N-(3-{[4-(trifluoromethyl)phenyl]thio}propyl)amine]",EC50,[1],360 nM
same,Plasma Ca^2+ (mmol/l) 1 hr,[2],1.302 mmol/L
same,Plasma Ca^2+ (mmol/l) 2 hr,[2],1.272 mmol/L
same,Plasma Ca^2+ (mmol/l) 4 hr,[2],1.175 mmol/L
same,Plasma Ca^2+ (mmol/l) 8 hr,[2],1.230 mmol/L
"C[C@@H](NCCC(=O)N(Cc1ccccc1)Cc1ccc(Cl)cc1)c1cccc2ccccc12 [Compound K-2247, N1-benzyl-N1-(4-chlorobenzyl)-3-{[(1R)-1-(1-naphthyl)ethyl]amino}propanamide]",EC50,[1],130 nM
same,Plasma Ca^2+ (mmol/l) 1 hr,[2],1.378 mmol/L
same,Plasma Ca^2+ (mmol/l) 2 hr,[2],1.298 mmol/L
same,Plasma Ca^2+ (mmol/l) 4 hr,[2],1.175 mmol/L
same,Plasma Ca^2+ (mmol/l) 8 hr,[2],1.217 mmol/L
"C[C@@H](NCCC(=O)N(Cc1ccccc1)Cc1ccc(Cl)c(Cl)c1)c1cccc2ccccc12 [Compound K-2250, N1-benzyl-N1-(3,4-dichloro-benzyl)-3-{[(1R)-1-(1-naphthyl)ethyl]amino}propanamide]",EC50,[1],76 nM
same,Plasma Ca^2+ (mmol/l) 1 hr,[2],1.327 mmol/L
same,Plasma Ca^2+ (mmol/l) 2 hr,[2],1.225 mmol/L
same,Plasma Ca^2+ (mmol/l) 4 hr,[2],1.122 mmol/L
same,Plasma Ca^2+ (mmol/l) 8 hr,[2],1.203 mmol/L
"C[C@@H](NCCC(=O)N(Cc1ccc(Cl)cc1)Cc1ccccc1Cl)c1cccc2ccccc12 [Compound K-2262, N1-(2-chlorobenzyl)-N1-(4-chlorobenzyl)-3-{[(1R)-1-(1-naphthyl)ethyl]amino}propanamide]",EC50,[1],84 nM
same,Plasma Ca^2+ (mmol/l) 1 hr,[2],1.390 mmol/L
same,Plasma Ca^2+ (mmol/l) 2 hr,[2],1.260 mmol/L
same,Plasma Ca^2+ (mmol/l) 4 hr,[2],1.138 mmol/L
same,Plasma Ca^2+ (mmol/l) 8 hr,[2],1.142 mmol/L
"C[C@@H](NCCCCSc1ccc(F)cc1)c1cccc2ccccc12 [Compound K-2263, N-{4-[(4-fluorophenyl)thio]butyl}-N-[(1R)-1-(1-naphthyl)ethyl]amine]",EC50,[1],110 nM
same,Plasma Ca^2+ (mmol/l) 1 hr,[2],1.273 mmol/L
same,Plasma Ca^2+ (mmol/l) 2 hr,[2],1.237 mmol/L
same,Plasma Ca^2+ (mmol/l) 4 hr,[2],1.212 mmol/L
same,Plasma Ca^2+ (mmol/l) 8 hr,[2],1.308 mmol/L
CC(NCCSc1cccc(C(F)(F)F)c1)c1cccc2ccccc12 (stereo not shown) [Compound K-2275],EC50,[1],270 nM
CC(NCCSc1cc(Cl)c(Cl)cc1Cl)c1cccc2ccccc12 (stereo not shown) [Compound K-2295],EC50,[1],1360 nM
COc1ccc(CN(Cc2ccc(O)cc2)C(=O)CCNC(C)c2cccc3ccccc23)cc1 (stereo not shown) [Compound K-2312],EC50,[1],80 nM
COc1ccc(SCCCCN[C@H](C)c2cccc3ccccc23)cc1 [Compound K-2314],EC50,[1],290 nM
Cc1ccc(C)c(SCCCCCCCCCCCCNC(C)c2cccc3ccccc23)c1 (stereo not shown) [Compound S-16],EC50,[1],110 nM
Cc1ccc(SCCCCNC(C)c2cccc3ccccc23)cc1C (stereo not shown) [Compound S-52],EC50,[1],160 nM
Cc1cc(C)cc(SCCNC(C)c2cccc3ccccc23)c1 (stereo not shown) [Compound S-64],EC50,[1],98 nM
Cc1cc(C)cc(SCCCCCCCN[C@H](C)c2cccc3ccccc23)c1 [Compound S-69],EC50,[1],310 nM
CC(NCCCCSc1ccc(Br)cc1)c1cccc2ccccc12 (stereo not shown) [Compound S-80],EC50,[1],100 nM
C[C@@H](NCCCCCCCSc1c(F)c(F)cc(F)c1F)c1cccc2ccccc12 [Compound S-165],EC50,[1],150 nM
CC(NCCCCCCCSc1c(Cl)c(Cl)nc(Cl)c1Cl)c1cccc2ccccc12 (stereo not shown) [Compound S-193],EC50,[1],66 nM
C[C@@H](NCCCCCCCCCCCCSc1c(F)c(F)c(C(F)(F)F)c(F)c1F)c1cccc2ccccc12 [Compound S-201],EC50,[1],180 nM
CC(C)c1ccccc1SCCNC(C)c1cccc2ccccc12 (stereo not shown) [Compound S-202],EC50,[1],150 nM
